According to US20090233939A1, “TREATMENT OF AMM” (priority 2002, published 2009):

Key:
[1] = tested on: other tyrosine kinase receptors, including c-Kit, bFGF and PDGF; conditions: cited from earlier work
[2] = tested on: patient having a protuberant spleen; test: Example 2: patient with massive protuberant spleen treated with PTK787; type: in vivo, human; conditions: 750 mg twice daily, after five days of therapy
Text: After five days of therapy, the spleen had less than 10% of its original size.

Flt-4 = Flt-4 (Homo sapiens, UniProt P35916); conditions: cited from earlier work
Flt-1 = Flt-1 (Homo sapiens, UniProt P17948); conditions: cited from earlier work
[3] = tested on: patient with splenomegaly

Sequence of Flt-4 (P35916 25-1363, species assumed): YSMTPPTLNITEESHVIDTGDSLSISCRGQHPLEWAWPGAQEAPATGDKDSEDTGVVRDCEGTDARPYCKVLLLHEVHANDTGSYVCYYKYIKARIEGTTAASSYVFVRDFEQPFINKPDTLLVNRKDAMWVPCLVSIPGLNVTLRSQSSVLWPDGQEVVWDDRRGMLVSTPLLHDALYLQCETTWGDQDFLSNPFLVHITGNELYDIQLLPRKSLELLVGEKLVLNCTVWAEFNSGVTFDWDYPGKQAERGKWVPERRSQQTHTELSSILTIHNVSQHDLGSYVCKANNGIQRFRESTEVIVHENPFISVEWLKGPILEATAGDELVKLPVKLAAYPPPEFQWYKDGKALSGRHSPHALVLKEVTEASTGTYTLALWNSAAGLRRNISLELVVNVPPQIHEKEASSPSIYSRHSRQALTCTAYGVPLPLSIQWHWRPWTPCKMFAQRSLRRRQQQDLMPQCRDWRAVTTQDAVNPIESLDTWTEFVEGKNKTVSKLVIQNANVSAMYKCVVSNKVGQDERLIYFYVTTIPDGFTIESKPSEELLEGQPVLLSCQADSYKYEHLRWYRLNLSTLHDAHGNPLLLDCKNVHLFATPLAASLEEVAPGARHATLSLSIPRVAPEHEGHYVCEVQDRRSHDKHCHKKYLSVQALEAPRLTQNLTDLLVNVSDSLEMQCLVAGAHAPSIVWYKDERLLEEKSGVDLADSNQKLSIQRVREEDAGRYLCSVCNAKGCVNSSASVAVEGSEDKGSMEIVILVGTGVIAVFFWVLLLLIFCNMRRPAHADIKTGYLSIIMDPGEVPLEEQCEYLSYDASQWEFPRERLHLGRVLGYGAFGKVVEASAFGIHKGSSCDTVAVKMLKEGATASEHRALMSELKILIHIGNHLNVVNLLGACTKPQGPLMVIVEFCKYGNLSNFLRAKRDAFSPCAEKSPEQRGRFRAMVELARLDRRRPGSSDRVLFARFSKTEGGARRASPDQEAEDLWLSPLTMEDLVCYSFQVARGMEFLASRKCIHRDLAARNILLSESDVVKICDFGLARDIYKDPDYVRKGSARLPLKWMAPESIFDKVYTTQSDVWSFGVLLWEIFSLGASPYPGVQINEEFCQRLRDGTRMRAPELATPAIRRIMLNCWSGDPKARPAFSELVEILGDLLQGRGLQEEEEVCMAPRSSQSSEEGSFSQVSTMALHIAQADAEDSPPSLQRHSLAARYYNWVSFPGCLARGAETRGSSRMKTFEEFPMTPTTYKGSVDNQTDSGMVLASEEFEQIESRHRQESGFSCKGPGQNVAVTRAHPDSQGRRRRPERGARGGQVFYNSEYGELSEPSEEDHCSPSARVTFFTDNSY
Sequence of Flt-1 (P17948 27-1338, species assumed): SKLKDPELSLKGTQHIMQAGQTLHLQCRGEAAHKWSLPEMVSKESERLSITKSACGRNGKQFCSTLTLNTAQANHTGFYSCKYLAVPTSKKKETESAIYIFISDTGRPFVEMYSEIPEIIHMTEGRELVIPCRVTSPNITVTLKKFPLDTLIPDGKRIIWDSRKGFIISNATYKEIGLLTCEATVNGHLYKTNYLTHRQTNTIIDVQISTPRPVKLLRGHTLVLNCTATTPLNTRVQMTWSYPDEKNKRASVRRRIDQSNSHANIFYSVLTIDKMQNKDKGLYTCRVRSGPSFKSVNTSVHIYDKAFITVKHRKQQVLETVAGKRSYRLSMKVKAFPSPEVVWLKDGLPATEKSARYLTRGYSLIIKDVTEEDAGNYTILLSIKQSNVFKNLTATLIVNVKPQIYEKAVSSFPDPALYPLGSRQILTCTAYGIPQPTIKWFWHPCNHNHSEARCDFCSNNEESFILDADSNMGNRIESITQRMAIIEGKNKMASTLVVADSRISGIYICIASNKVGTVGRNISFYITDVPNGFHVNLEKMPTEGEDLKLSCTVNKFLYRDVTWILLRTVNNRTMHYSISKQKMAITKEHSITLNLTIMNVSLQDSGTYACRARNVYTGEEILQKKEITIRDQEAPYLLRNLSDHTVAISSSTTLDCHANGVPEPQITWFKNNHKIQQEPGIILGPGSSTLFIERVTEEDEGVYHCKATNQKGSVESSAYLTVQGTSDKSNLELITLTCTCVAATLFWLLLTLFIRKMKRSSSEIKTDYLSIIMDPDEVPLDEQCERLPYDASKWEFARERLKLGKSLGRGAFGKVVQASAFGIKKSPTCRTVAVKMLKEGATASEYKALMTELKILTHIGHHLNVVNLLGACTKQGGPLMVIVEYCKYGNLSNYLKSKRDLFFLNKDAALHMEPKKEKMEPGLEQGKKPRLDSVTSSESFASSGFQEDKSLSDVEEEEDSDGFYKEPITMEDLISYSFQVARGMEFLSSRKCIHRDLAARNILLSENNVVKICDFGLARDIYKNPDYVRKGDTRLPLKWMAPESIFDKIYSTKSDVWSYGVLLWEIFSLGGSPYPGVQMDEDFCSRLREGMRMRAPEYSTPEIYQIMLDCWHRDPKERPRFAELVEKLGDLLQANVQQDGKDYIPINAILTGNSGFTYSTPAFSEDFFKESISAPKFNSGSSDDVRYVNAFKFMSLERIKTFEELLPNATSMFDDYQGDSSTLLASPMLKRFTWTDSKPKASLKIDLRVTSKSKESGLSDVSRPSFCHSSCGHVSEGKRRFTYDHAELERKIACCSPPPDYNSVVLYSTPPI

PTK787
activity against other tyrosine kinase receptors [1]: has activity
spleen size [2]: less than 10 % of its original size
inhibition of Flt-4 (Flt-4): can also inhibit
inhibition of Flt-1 (Flt-1): can also inhibit
splenomegaly ([3]; 750 mg twice daily, first 14 days of chemotherapy): decrease of splenomegaly
white blood cells count ([3]; 750 mg twice daily, first 14 days, drop from 19,000): 14,000
spleen during interruption of therapy ([3]; during the interruption of therapy): the spleen began to increase again
